{"source": "paper PMC11750672", "about": "“The in vivo metabolic pathway of Deg-AZM and in vitro investigations into the contribution of drug metabolizing enzymes and drug transporters in the drug interactions of Deg-AZM, a clinical-stage new transgelin agonist” (Frontiers in Pharmacology, 2025)", "key": {"Caco-2 cell monolayer": {"system": "Caco-2 cell monolayer", "assay": "Bidirectional transport in Caco-2 cell monolayer", "assay_type": "in vitro ADME, human", "details": "2, 10 and 50 μM, intake direction", "method": "(§1) The human colon adenocarcinoma Caco-2 cell line was provided by Institute of Basic Medicine, Chinese Academy of Medical Sciences (Beijing, China). Caco-2 cells were cultured in a high sugar DMEM medium containing 10% (v/v) fetal bovine serum at 37°C and 5% CO2 incubator. Caco-2 cells (2.5 ×10^5/mL) was inoculated into Transwell polycarbonate membrane 12 well plate. The culture medium was changed every 2 days for the first 14 days, and then every day. After 21 consecutive days, fully differentiated cell monolayers were obtained for drug transport assays.\n(§2) Transepithelial electrical resistance (TEER) was used to indicate monolayer integrity. The electrode of the Millcell ERS-2 voltammeter was placed in HBSS solution for 20 min to pre-balance. At the same time, the culture medium was removed from the Transwell culture plate, 0.5 mL of pre-heated HBSS solution was added into the Apical (AP) of transwell, 1.5 mL of pre-heated HBSS solution was added into the Basolateral (BL) of transwell. After that, the transwell was balanced at 37°C for 20 min and then replaced the HBSS solution with the pre-heated HBSS solution, the TEER value was measured finally. Caco-2 cell monolayers with TEER >350 Ω cm^2 which means that the cells have formed a tight monolayer, were used for the experiment. The TEER value was calculated according to the following formula: TEER=TEERT ‐ TEERc×A where TEERT represented the TEER value (Ω) of the measured Transwell chamber with Caco-2 cells, TEERC was the TEER value (Ω) of the transwell chamber in the control group, and A was the membrane area of the transwell cavity (1.12 cm^2 in this experiment).\n(§3) In order to evaluate the usability of the Transwell model research, [^3H] Propranolol (0.5 μCi/mL) and [^14C] PEG4000 (1 μCi/mL) served as high-permeability and impermeability controls to verify the uptake direction on Caco-2 cell monolayer, respectively. Rhodamine 123 was used as a positive control for efflux mechanism in bidirectional transport assay on Caco-2 cell monolayer.\n(§4) The transmembrane permeability of Deg-AZM (2, 10 or 50 µM) and the potential to inhibit P-gp by Deg-AZM (2, 10 or 50 µM) were evaluated using Caco-2 cell monolayer both apical-to-basolateral (A-B) and basolateral-to-apical (B-A) directions at 37°C for 1 h, the experiments were conducted using quinidine (50 μM) as the inhibitor for P-gp. At the end of incubation, receiver and donor samples were both diluted by assay buffer and analyzed by LC-MS/MS."}, "[1]": {"assay": "Bidirectional transport in Caco-2 cell monolayer", "assay_type": "in vitro ADME, human", "details": "human, Caco-2, without quinidine", "method": "as §1, §2, §3, §4"}, "CYP2B6": {"system": "CYP2B6", "assay": "CYP induction (mRNA, qPCR) in human hepatocytes", "details": "for CYP2B6 induction, % of PC: PC phenobarbital 1 mM", "text": "After culture and complete induction, total mRNA was extracted by TRNzol RNA Extraction Kit (purchased from Tiangen Biochemical Technology Co., Ltd., Beijing). The RNA was reverse transcribed into cDNA according to the instructions of the Transcriptor First Strand cDNA Synthesis Kit (purchased from Roche, Switzerland). Using reverse transcribed cDNA as a template, amplifying the internal reference genes of β-Actin of the sample and target genes of CYP1A2, CYP2B6, and CYP3A4 respectively to compare the expression differences."}, "human liver microsomes": {"system": "human liver microsomes", "design": "method as in Gu et al., 2024", "details": "ref Gu et al., 2024; cited from earlier work"}, "CYP2C9": {"target": "T1, CYP2C9 (Homo sapiens, UniProt P11712)", "T1 construct": "from tissue; host or cells: human liver microsomes", "T1 sequence (P11712 whole entry)": "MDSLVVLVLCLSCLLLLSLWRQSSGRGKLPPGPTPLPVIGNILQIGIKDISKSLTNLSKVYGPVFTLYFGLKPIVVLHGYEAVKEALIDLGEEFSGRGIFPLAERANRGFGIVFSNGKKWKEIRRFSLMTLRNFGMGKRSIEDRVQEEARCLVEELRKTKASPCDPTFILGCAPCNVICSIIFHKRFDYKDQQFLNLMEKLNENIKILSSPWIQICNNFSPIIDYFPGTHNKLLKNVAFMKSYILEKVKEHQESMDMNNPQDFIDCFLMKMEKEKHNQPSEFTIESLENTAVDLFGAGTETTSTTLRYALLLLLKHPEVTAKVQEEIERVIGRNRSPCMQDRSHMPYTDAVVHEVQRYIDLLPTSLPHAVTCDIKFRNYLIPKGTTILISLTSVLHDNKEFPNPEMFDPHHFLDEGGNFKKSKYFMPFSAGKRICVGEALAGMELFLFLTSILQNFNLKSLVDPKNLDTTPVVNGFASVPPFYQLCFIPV", "assay": "HLM phenotyping assay with CYP2C9 inhibitor sulfaphenazole", "assay_type": "in vitro ADME", "details": "1 μM, HLM 0.5 mg/mL, NADPH, 90 min, with 10 µM sulfaphenazole", "method": "Deg-AZM (1 μM) was treated with pooled HLM (0.5 mg/mL) and NADPH (1 mM) for 90 min with or without seven specific inhibitors (10 µM furafylline for CYP1A2, 10 µM ticlopidine for CYP2B6, 5 µM montelukast for CYP2C8, 10 µM sulfaphenazole for CYP2C9, 10 µM ticlopidine for CYP2C19, 2.5 µM quinidine for CYP2D6, 1 µM ketoconazole for CYP3A). Isoform-selective probe substrates, 10 µM phenacetin for CYP1A2, 20 µM bupropion for CYP2B6, 2 µM amodiaquine for CYP2C8, 5 µM diclofenac for CYP2C9, 20 µM S-mephenytoin for CYP2C19, 5 µM bufuralol for CYP2D6, 2 µM midazolam for CYP3A4, were used as positive controls."}}}
{"molecule": "CCC1OC(=O)C(C)C(O)C(C)C(O)C(C)(O)CC(C)CN(C)C(C)C(O)C1(C)O", "note": "(stereo not shown) [Deg-AZM, Deglycosylated azithromycin]", "values": [{"measurement": "Permeability classification", "setting": "Caco-2 cell monolayer", "result": "low permeability drug with poor transmembrane ability"}, {"measurement": "Papp A→B at 1 h, 2 μM", "setting": "[1]; 2 μM, 37°C 1 h, n = 3", "result": "0.326 ± 0.0481", "unit": "×10⁻⁶ cm/s"}, {"measurement": "Papp B→A at 1 h, 2 μM", "setting": "[1]; 2 μM, 37°C 1 h, n = 3", "result": "5.27 ± 0.771", "unit": "×10⁻⁶ cm/s"}, {"measurement": "efflux ratio at 1 h, 2 μM", "setting": "[1]; 2 μM, read-out: ER", "result": 16.2}, {"measurement": "Papp A→B at 1 h, 10 μM", "setting": "[1]; 10 μM, 37°C 1 h, n = 3", "result": "0.302 ± 0.0416", "unit": "×10⁻⁶ cm/s"}, {"measurement": "Papp B→A at 1 h, 10 μM", "setting": "[1]; 10 μM, 37°C 1 h, n = 3", "result": "3.7 ± 0.485", "unit": "×10⁻⁶ cm/s"}, {"measurement": "efflux ratio at 1 h, 10 μM", "setting": "[1]; 10 μM, read-out: ER", "result": 12.2}, {"measurement": "Papp A→B at 1 h, 50 μM", "setting": "[1]; 50 μM, 37°C 1 h, n = 3", "result": "0.316 ± 0.0201", "unit": "×10⁻⁶ cm/s"}, {"measurement": "Papp B→A at 1 h, 50 μM", "setting": "[1]; 50 μM, 37°C 1 h, n = 3", "result": "3.16 ± 0.401", "unit": "×10⁻⁶ cm/s"}, {"measurement": "efflux ratio at 1 h, 50 μM", "setting": "[1]; 50 μM, read-out: ER", "result": 10}, {"measurement": "CYP2B6 induction, % of PC", "setting": "CYP2B6; 5 μM, batch HUB", "result": "−0.466", "unit": "%"}, {"measurement": "CYP2B6 induction, % of PC", "setting": "CYP2B6; 5 μM, batch LHuf 17905B", "result": 6.61, "unit": "%"}, {"measurement": "CYP2B6 induction, % of PC", "setting": "CYP2B6; 5 μM, batch MWB", "result": 4.39, "unit": "%"}, {"measurement": "CYP2B6 mRNA induction, times of control group", "setting": "CYP2B6; 5 μM, hepatocyte batch HUB", "result": 0.942}, {"measurement": "CYP2B6 mRNA induction, times of control group", "setting": "CYP2B6; 5 μM, hepatocyte batch LHuf 17905B", "result": 1.61}, {"measurement": "CYP2B6 mRNA induction, times of control group", "setting": "CYP2B6; 5 μM, hepatocyte batch MWB", "result": 1.60}, {"measurement": "CYP2B6 induction, % of PC", "setting": "CYP2B6; 25 μM, batch HUB", "result": 0.0278, "unit": "%"}, {"measurement": "CYP2B6 induction, % of PC", "setting": "CYP2B6; 25 μM, batch LHuf 17905B", "result": 5.00, "unit": "%"}, {"measurement": "CYP2B6 induction, % of PC", "setting": "CYP2B6; 25 μM, batch MWB", "result": 6.09, "unit": "%"}, {"measurement": "CYP2B6 mRNA induction, times of control group", "setting": "CYP2B6; 25 μM, hepatocyte batch HUB", "result": 1.00}, {"measurement": "CYP2B6 mRNA induction, times of control group", "setting": "CYP2B6; 25 μM, hepatocyte batch LHuf 17905B", "result": 1.46}, {"measurement": "CYP2B6 mRNA induction, times of control group", "setting": "CYP2B6; 25 μM, hepatocyte batch MWB", "result": 1.83}, {"measurement": "CYP2B6 induction, % of PC", "setting": "CYP2B6; 100 μM, batch HUB", "result": 2.97, "unit": "%"}, {"measurement": "CYP2B6 induction, % of PC", "setting": "CYP2B6; 100 μM, batch LHuf 17905B", "result": 19.8, "unit": "%"}, {"measurement": "CYP2B6 induction, % of PC", "setting": "CYP2B6; 100 μM, batch MWB", "result": 24.3, "unit": "%"}, {"measurement": "CYP2B6 mRNA induction, times of control group", "setting": "CYP2B6; 100 μM, hepatocyte batch HUB", "result": 1.37}, {"measurement": "CYP2B6 mRNA induction, times of control group", "setting": "CYP2B6; 100 μM, hepatocyte batch LHuf 17905B", "result": 2.84}, {"measurement": "CYP2B6 mRNA induction, times of control group", "setting": "CYP2B6; 100 μM, hepatocyte batch MWB", "result": 4.33}, {"measurement": "Induction effect on CYP2B6 (conclusion)", "setting": "CYP2B6; 5, 25, and 100 µM, three batches of human hepatocytes", "result": "has an induction effect"}, {"measurement": "T1/2", "setting": "human liver microsomes", "result": 46.5, "unit": "min"}, {"measurement": "Deg-AZM remaining", "setting": "CYP2C9", "result": 67.5, "unit": "%"}]}
